Experimental findings from patent publication US20160002291A1, “Active Agent Prodrugs with Heterocyclic Linkers” (Signature Therapeutics, Inc., priority 2011, published 2016) are described below.

A short description of series [1]: Spacer leaving group cyclization release rate in pH 7.4 phosphate buffer (Example 39). To be noted: 2.18 mM, 50 mM pH 7.4 phosphate buffer, 20° C.
Series [2] is described as follows: Oral administration of oxycodone prodrugs co-dosed with trypsin inhibitor Compound 109 to rats (Example 40). It is filed as in vivo. To be noted: co-dosed PO with KC-12 or KC-17 to rats.
Series [3] in a line: Oral administration of hydrocodone prodrugs co-dosed with Compound 109 to rats (Example 46). To be noted: co-dosed PO with KC-40 or KC-50 to rats.
The nature of series [4]: Pharmacokinetics following PO administration of Compound KC-55 to rats (Example 48).
In series [5] the target is T1, trypsin (Bos taurus, UniProt P00760).
T1 construct: purchased Sigma-Aldrich T8003; host or cells: bovine pancreas
T1 sequence (P00760 24-246): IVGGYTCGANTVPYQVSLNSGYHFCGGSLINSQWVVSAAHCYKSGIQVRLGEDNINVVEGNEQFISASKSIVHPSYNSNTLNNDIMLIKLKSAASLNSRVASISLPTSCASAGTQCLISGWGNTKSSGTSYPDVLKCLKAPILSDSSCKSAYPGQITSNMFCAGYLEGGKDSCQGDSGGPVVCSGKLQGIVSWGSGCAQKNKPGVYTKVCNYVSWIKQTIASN
Kind of series: In vitro trypsin-mediated cleavage of hydrocodone prodrugs (Example 44). The format is biochemical, bovine. As to conditions: conditions as Example 39.
Procedure: The reactions were conducted at 37° C. for 24 h. Samples were collected at specified time points, transferred into 0.5% formic acid in acetonitrile to stop trypsin activity, and stored at less than −70° C. until analysis by LC-MS/MS.

On to `COc1ccc2c3c1O[C@H]1C(OC(=O)N4CCCCC4CN)=CC[C@@]4(O)[C@@H](C2)N(C)CC[C@]314` (single isomer, unassigned; peak a) [KC-11 peak A, N-(oxycodone-6-enol-carbonyl)piperidine-2-methylamine], for which, in series [1], the “half-life (cyclization; compound disappearance)” value is 1.30 ± 0.038 h.

Consider `COc1ccc2c3c1O[C@H]1C(OC(=O)N4CCCCC4CN)=CC[C@@]4(O)[C@@H](C2)N(C)CC[C@]314` (single isomer, unassigned; peak b) [KC-11 peak B, N-(oxycodone-6-enol-carbonyl)piperidine-2-methylamine], for which the “half-life (cyclization; compound disappearance)” value in series [1] worked out at 0.876 ± 0.012 h.

Regarding `N=C(N)c1ccc2cc(OC(=O)c3ccc(N=C(N)N)cc3)ccc2c1` [Compound 109, 6-carbamimidoylnaphthalen-2-yl 4-(diaminomethyleneamino)benzoate], the “effect of trypsin inhibitor on release of oxycodone” value in series [2] is “attenuate release of oxycodone by prodrugs of the embodiments”. In addition, the “effect of trypsin inhibitor on release of hydrocodone” value in series [3] is given as “attenuate release of hydrocodone by prodrugs of the embodiments”.

In the case of `COc1ccc2c3c1O[C@H]1C(OC(=O)N4CCC(C(=O)O)CC4CNC(=O)[C@H](CCCNC(=N)N)NC(=O)CNC(C)=O)=CC[C@@]4(O)[C@@H](C2)N(C)CC[C@]314` (stereo partly drawn) [Compound KC-55, N-(oxycodone-6-enol-carbonyl)-[(2-methylamino)-piperidine-4-carboxylate]-L-arginine-glycine-acetate], in series [4] (PO to rats), the “release of oxycodone on oral administration” value is reported as “leads to release of oxycodone”.

With `COc1ccc2c3c1O[C@H]1C(=O)CC[C@@]4(O)[C@@H](C2)N(C)CC[C@]314` [Oxycodone, oxycodone, reference compound], the Cmax in series [4] (male, Sprague Dawley, rat, plasma, po, 10 mg/kg) amounted to 14.7 ± 6.5 ng/mL.

Consider “N-(hydrocodone-6-enol-carbonyl)-(2-methylamino)piperidine-4-carboxylate]-L-arginine-glycine-acetate [Compound KC-40]”, for which the HC formation rate in series [5] is 0.003 ± 0.00 μmol/h/BAEE U.

As usually defined, the Cmax is the highest concentration seen after dosing.
